Converted amounts (≈) assume the structure as drawn.
Assays:
Assay type in all cases: cell-based
[1] = tested on: Trypanosoma congolense (bloodstream form); assay: Antitrypanosomal activity test (TetraColor ONE, 48 hours)
Experimental: Trypanosoma congolense (bloodstream form) 2×10^5 cells were inoculated into a 96-well plate, and a sample diluted with a culture medium was then added and cultured for 48 hours. Subsequently, 10 μL of TetraColor ONE (Seikagaku Biobusiness Corporation) was added to each well to measure the viable cell count, and after 4 hours, the absorbance at 450 nm was measured.

[2] = tested on: EGFP transgenic Leishmania protozoa (LaEGFP); assay: microbe, parasite or virus in culture
Experimental: EGFP transgenic Leishmania protozoa (LaEGFP, Okuno T et al., Exp. Anim, 52: 109 (2003)) 1×10^5 cells were inoculated into a 96-well plate, and a sample diluted with a culture medium was then added and incubated for 72 hours. Subsequently, the fluorescence intensity within each well was measured using a fluorescence plate reader, and the antileishmanial activity of the test sample was calculated.

[3] = tested on: Plasmodium falciparum K-1 strain; assay: Antiplasmodial activity test (SYBR GREEN, 48 hours); details: read-out: IC50 value against the Plasmodium falciparum K-1 strain
Experimental: Synchronized 0.5% ring stage Plasmodium falciparum K-1 strain 90 μL was added to each well of a 96-well plate, and a sample diluted with a culture medium was then added and incubated for 48 hours. Subsequently, 100 μL of a mixed solution prepared by adding 0.2 μL of SYBR GREEN to 1 mL of lysis buffer (20 mM Tris (pH 7.5), 5 mM EDTA, 0.008% (wt/vol) saponin, 0.08% (vol/vol) Triton X-100) was added to each well, and stirred with a vortex mixer. Following standing for 1 hour in a dark place, the fluorescence was measured with a fluorescence plate reader, using an excitation wavelength of 485 nm and a detection wavelength of 530 nm.

[4] = tested on: human cervical cancer-derived HeLa cells; assay: Cytotoxicity test (MTT), HeLa; details: isolated compound, 72 hours, read-out: IC50 value against HeLa cells
Experimental: (§1) A suspension of human cervical cancer-derived HeLa cells and mouse lymphoma-derived P388 cells (1×10^4 cells/mL) 200 μL was dispended into each well of rows A to H, columns 1 to 11 of a 96-well microplate, and the suspension was then incubated for 24 hours at 37° C. Subsequently, 2 μL of a methanol solution of the sample (1 mg/mL) was added to each well of row A, columns 1 to 10 of the 96-well microplate, and 2 μL of adriamycin (1 mg/mL) was added to the well of row A, column 11 as a positive control. Only the culture medium 200 μL was added to each well of rows A to D, column 12, and 200 μL of the aforementioned suspension of 1×10^4 cells/mL was added to each well of rows E to H, column 12. Using a multi-channel pipette, 50 μL of the culture medium was aspirated from the well of each column of row A and added to the well of the corresponding column of row B, and then 50 μL of the culture medium was aspirated from the well of each column of row B and added to the well of the corresponding column of row C. […] Following culturing for 72 hours, 50 μL of 1 mg/mL PBS solution of MTT (3-[4,5-dimethylthiazol-2-yl]-2,5-diphenyl tetrazolium bromide) was added to each well. […] For each well, the absorbance of the colorimetric substrate dissolved in the DMSO was measured using a multi-well plate reader, and the concentration at which half the cells were inhibited (IC50) was determined. […]

[5] = tested on: mouse lymphoma-derived P388 cells; assay: Cytotoxicity test (MTT), P388; details: isolated compound, 72 hours, read-out: IC50 value against P388 cells
Experimental: as §1

[6] = tested on: human promyelocytic leukemia-derived HL-60 cells; assay: Cytotoxicity test (MTT), HL-60; details: isolated compound, 72 hours, read-out: IC50 value against HL-60 cells
Experimental: A suspension of human cervical cancer-derived HeLa cells, human promyelocytic leukemia-derived HL-60 cells, and mouse lymphoma-derived P388 cells (1×10^4 cells/mL) 200 μL was dispended into each well of rows A to H, columns 1 to 11 of a 96-well microplate, and the suspension was then incubated for 24 hours at 37° C. Subsequently, 2 μL of a methanol solution of the sample (1 mg/mL) was added to each well of row A, columns 1 to 10 of the 96-well microplate, and 2 μL of adriamycin (1 mg/mL) was added to the well of row A, column 11 as a positive control. Only the culture medium 200 μL was added to each well of rows A to D, column 12, and 200 μL of the aforementioned suspension of 1×10^4 cells/mL was added to each well of rows E to H, column 12. Using a multi-channel pipette, 50 μL of the culture medium was aspirated from the well of each column of row A and added to the well of the corresponding column of row B, and then 50 μL of the culture medium was aspirated from the well of each column of row B and added to the well of the corresponding column of row C. […] For each well, the absorbance of the colorimetric substrate dissolved in the DMSO was measured using a multi-well plate reader, and the concentration at which half the cells were inhibited (IC50) was determined.

For `C[C@@H]1[C@H](O)[C@@H](C)/C=C/C=C/C=C/C=C/C=C/C=C/C=C/[C@H](O[C@@H]2O[C@H](C)[C@@H](O)[C@H](N)[C@@H]2O)C[C@@H]2O[C@](O)(C[C@@H](O)C[C@@H](O)[C@H](O)CC[C@@H](O)C[C@@H](O)CC(=O)O[C@H]1C)C[C@H](O)[C@H]2C(=O)O` [amphotericin B, reference compound], the “IC50 value against the T. congolense” value [1] was 811 ng/mL (≈ 0.878 µM) and the “IC50 value against the LaEGFP (antileishmanial activity)” value ([2]; LaEGFP, 72 hours) was “approximately 20 ng/mL”.

`CC(=O)O/C=C1\CCC/C(C=O)=C\C[C@@H]2C(C(=O)CC=C(C)C)=CO[C@H](OC(C)=O)[C@@H]12` [cristaxenicin A] gave an IC50 ([1]; Trypanosoma congolense, read-out: IC50 value against the T. congolense) of 0.107 µg/mL (≈ 0.249 µM), an IC50 [3] of 4.6 µg/mL (≈ 10.7 µM) and an IC50 [4] of 2 µg/mL (≈ 4.65 µM). It also gave an IC50 ([2]; Leishmania, 72 h, read-out: IC50 value against the LaEGFP (antileishmanial activity)) of 0.036 µg/mL (≈ 0.0836 µM), an IC50 [5] of 0.89 µg/mL (≈ 2.07 µM) and an IC50 [6] of 0.727 µg/mL (≈ 1.69 µM).

With cristaxenicin A the “antiprotozoal activity of HPLC peak fractions (in words)” value ([2]; reversed phase HPLC peak fractions) was “exhibited antiprotozoal activity”.

From patent US8722909B2, “Antiprotozoal compound derived from coelenterata” (Waseda University, priority 2010, dated 2014)
